Measured values: patent publication US20060287319A1, “Anti-viral compositions comprising heterocyclic substituted phenyl furans and related compounds” (priority 2005, published 2006)
Where two headings read alike, the source gives them in different places.

Experiments:
[1] = system: HIV-1; conditions: previously reported; cited from earlier work
[2] = biological target: gp41 six-helix bundle formation between N36 and C34 (Human immunodeficiency virus type 1 group M subtype B, UniProt P04578)
Procedure: ELISA for screening for compounds that inhibit the gp41 six-helix bundle formation. A sandwich ELISA as previously described (27) was used to screen for compounds that inhibit the gp41 six-helix bundle formation. Briefly, peptide N36 (2 μM) was pre-incubated with a test compound at the indicated concentrations at 37° C. for 30 min, followed by addition of C34 (2 μM). In the control experiments, N36 was pre-incubated with C34 at 37° C. for 30 min, followed by addition of the test compound. After incubation at 37° C. for 30 min, the mixture was added to wells of a 96-well polystyrene plate (Costar, Corning Inc., Corning, N.Y.) which were precoated with IgG (2 μg/ml) purified from rabbit antisera directed against the N36/C34 mixture. […] Absorbance at 450 nm was measured using an ELISA reader (Ultra 384, Tecan, Research Triangle Park, N.C.). […] Chou (Sloan-Kettering Cancer Center, New York, N.Y.).
A model system of the gp41 six-helix bundle was established by mixing the N— and C-peptides at equal molar concentrations (16).

[3] = system: HIV-1IIIB in MT-2 cells; test: Time-of-addition assay (p24 production); type: cell-based; conditions: 0.1 μM
Procedure: FIG. 1 NB-206 and its analogs inhibited HIV-1 entry. Inhibition of HIV-1 entry was determined by a time-of-addition assay. NB-206 (2.5 μM) and its analog NB-231 (2.5 μM) were added to MT-2 cells at different intervals post-infection by HIV-1IIIB. AZT (0.1 μM), a reverse transcriptase inhibitor, was included as a control. Each sample was tested in triplicate.
Assessment of anti-HIV-1 infectivity. […] Reactions were terminated by addition of 1N H2SO4.
A time-of-addition assay was carried out to determine whether NB-206 and its analogs are HIV-1 entry inhibitors. MT-2 cells were incubated with HIV-1IIIB at 37° C. for 0, 1, 2, 3, 4, 6, and 8 hrs, respectively, before addition of NB-206 and NB-231 at 2.5 μM. AZT (0.1 μM) was used as a control. After culture for another 2 hrs, the cells were washed to remove the free-virus and compounds. The supernatants were collected on day 4 post-infection for measurement of p24 production.

[4] = system: HIV-1 IIIB; conditions: for EC50: read-out: EC50 (μM) (M ± SD) for inhibition of p24, HIV-1 IIIB, MT-2 cells
Procedure: Assessment of anti-HIV-1 infectivity. The inhibitory activity of compounds on infection by laboratory-adapted HIV-1 strains was determined as previously described (34). […] For the time-of-addition assay, compounds were added at various time post-infection. Then the culture supernatants were removed and fresh media were added. On the fourth day post-infection, 100 μl of culture supernatants were collected from each well, mixed with equal volumes of 5% Triton X-100 and assayed for p24 antigen, which was quantitated by ELISA (23). Briefly, the wells of polystyrene plates (Immulon 1B, Dynex Technology, Chantilly, Va.) were coated with HIV immunoglobulin (HIVIG), which was prepared from plasma of HIV-seropositive donors with high neutralizing titers against HIV-1IIIB as previously described (36) in 0.085 M carbonate-bicarbonate buffer (pH 9.6) at 4° C. overnight, followed by washes with PBS-T buffer (0.01M PBS containing 0.05% Tween-20) and blocking with PBS containing 1% dry fat-free milk (Bio-Rad Inc., Hercules, Calif.). Virus lysates were added to the wells and incubated at 37° C. for 1 h. […] Reactions were terminated by addition of 1N H2SO4. […] Recombinant protein p24 (US Biological, Swampscott, Mass.) was included for establishing standard dose response curve.

[5] = system: HIV-1IIIB infected H9 cells (H9/HIV-1IIIB) and MT-2 cells; test: HIV-1 mediated cell-cell fusion (dye transfer assay); type: cell-based; conditions: H9/HIV-1IIIB with MT-2 cells; read-out: EC50 (μM) (M ± SD) for inhibition of Cell fusion
Procedure: Inhibition of cell-cell fusion. A dye transfer assay was used for detection of HIV-1 mediated cell fusion as previously described (11,25,26). H9/HIV-1IIIB cells were labeled with a fluorescent reagent, Calcein-AM (Molecular Probes, Inc., Eugene, Oreg.) and then incubated with MT-2 cells (ratio=1:5) in 96-well plates at 37° C. for 2 hrs in the presence or absence of compounds tested. The fused and unfused Cacein-labeled HIV-1-infected cells were counted under an inverted fluorescence microscope (Zeiss, Germany) with an eyepiece micrometer disc. The percentage of inhibition of cell fusion and the IC50 values were calculated as previously described (11).

[6] = system: HIV-1 IIIB; test: HIV-1-mediated cytopathic effect (CPE); type: cell-based; conditions: read-out: EC50 (μM) (M ± SD) for inhibition of CPE
Text: We thus purchased these compounds and tested their inhibitory activity on: 1) HIV-1 replication (p24 production); 2) HIV-1-mediated cytopathic effect (CPE); and 3) HIV-1 Env-induced cell-cell fusion; and their cytotoxicity to MT-2 cells.

[7] = system: MT-2 cells
Procedure: Detection of in vitro cytotoxicity. The in vitro cytotoxicity of compounds for MT-2 cells was measured by a colorimetric method using XTT tetrazolium dye as previously described (21). Briefly, 100 μl of a compound at a graded concentration was added to equal volume of cells (5×10^5/ml) in a well of 96-well plates. After incubation at 37° C. for 4 days, XTT (1 mg/ml; […]; PolySciences, Inc., Warrington, Pa.) was added. Four hours later, the soluble intracellular formazan was quantitated colorimetrically at 450 nm with a reference at 570 nm.

[8] = system: HIV-1IIIB-infected H9 cells (H9/HIV-1IIIB) cocultured with MT-2 cells; conditions: single dose 25 μg/ml, HTS
Procedure: Syncytium-formation assay for screening HIV-1 fusion inhibitors. HIV-1IIIB-infected H9 cells (H9/HIV-1IIIB) at 2×10^5/ml were cocultured with MT-2 cells (2×10^6/ml) in the presence of compounds to be screened (final concentration of compound: 25 μg/ml) in a 96-well plate at 37° C. for 2 days. HIV-1 induced syncytium formation was observed under an inverted microscope and scored as “−” (no syncytium was observed), “±” (about 50% syncytia were inhibited), and “+” (no syncytium formation was inhibited). The compounds scored with “−” and “±” were selected for further screening by ELISA for inhibitors against the gp41 six-helix bundle formation.

[9] = read-out: Cytotoxicity CC50 (μM) (M ± SD), MT-2 cells

Sequence of gp41 six-helix bundle formation between N36 and C34 (P04578 546-581): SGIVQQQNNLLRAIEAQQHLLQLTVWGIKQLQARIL

EC50 [4] [µM]	EC50 [5] [µM]	EC50 [6] [µM]	SMILES	CC50 [7] [µM]	CC50 [7, 9] [µM]	other results
> 100	> 100	> 100	Cc1ccc(NC(=O)CN2C(=O)S/C(=C\c3ccc(-c4cccc(C(=O)O)c4)o3)C2=O)cc1 [NB194]	207 ± 4.4	–	–
0.943 ± 0.144	2.23 ± 0.082	3.53 ± 0.738	CCN1C(=O)/C(=C/c2ccc(-c3ccc(Cl)c(C(=O)O)c3)o2)SC1=S [NB214]	44.8 ± 1.25	–	SI (CC50/EC50) [4]: 47.5
> 100	> 100	> 100	CN1C(=O)S/C(=C\c2ccc(-c3cc(C(=O)O)ccc3Cl)o2)C1=O [NB186]	> 440	–	–
> 100	> 100	> 100	CCC(C)N1C(=O)S/C(=C\c2ccc(-c3cc(C(=O)O)ccc3Cl)o2)C1=O (centres unmarked) [NB232]	> 394	–	–
> 100	> 100	> 100	Cc1c(C(=O)O)cccc1-c1ccc(/C=C2\SC(=S)N(CC(=O)O)C2=O)o1 [NB228]	> 397	–	–
> 100	> 100	> 100	C#CCN1C(=O)S/C(=C\c2ccc(-c3cccc(C(=O)O)c3)o2)C1=O [NB216]	55.3 ± 10	–	–
0.667 ± 0.174	43.7	3.86 ± 0.58	CN1C(=O)/C(=C/c2ccc(-c3cccc(C(=O)O)c3)o2)SC1=S [NB151]	125 ± 14.7	–	SI (CC50/EC50) [4]: 187.17
1.13 ± 0.103	68.6 ± 1.83	2.23 ± 0.515	COc1ccc(CN2C(=O)/C(=C/c3ccc(-c4ccc(Cl)c(C(=O)O)c4)o3)SC2=S)cc1 [NB211]	93.2 ± 4.41	–	SI (CC50/EC50) [4]: 82.24

Continued, molecule first:

SMILES	EC50 [4] [µM]	EC50 [5] [µM]	EC50 [6] [µM]	CC50 [7] [µM]	CC50 [7, 9] [µM]	other results
COc1ccc(S(=O)(=O)[O-])cc1N=Nc1c(S(=O)(=O)[O-])cc2cc(Nc3nc(Nc4ccccc4)nc(Nc4cc(C)c(N=Nc5cc(S(=O)(=O)[O-])cc6cc(S(=O)(=O)[O-])cc(O)c56)cc4OC)n3)ccc2c1O.[Na+].[Na+].[Na+].[Na+] [ADS-J1]	–	–	–	–	–	anti-HIV-1 activities [1]: micromolar levels
O=C(O)c1cccc(-c2ccc(/C=C3\SC(=S)N(c4cccc(C(F)(F)F)c4)C3=O)o2)c1 [NB154]	–	–	–	–	–	IC50 ([2]; read-out: IC50 for inhibition of six-helix bundle formation between N36 and C34, sandwich ELISA, FIG. 3): 1.56 ± 0.12 µM
Cc1cn([C@H]2C[C@H](N=[N+]=[N-])[C@@H](CO)O2)c(=O)[nH]c1=O [AZT]	–	–	–	–	–	inhibition of HIV-1 replication, added 8 hrs post-infection [3]: still effective
COC(=O)C(C)N1C(=O)S/C(=C\c2ccc(-c3cc(C(=O)O)ccc3C)o2)C1=O (centres unmarked) [NB237]	> 100	> 100	> 100	67.7 ± 15	–	–
O=C(O)c1cccc(-c2ccc(/C=C3\SC(=S)N(c4cccc(Cl)c4)C3=O)o2)c1 [NB145]	0.18 ± 0.02	1.77 ± 0.09	0.18 ± 0.006	–	47.5 ± 6.37	inhibition of HIV-1 mediated syncytium formation [8]: completely inhibited; inhibition of six-helix bundle formation between N36 and C34 ([2]; single dose 25 μg/ml, HTS): completely inhibited; SI (CC50/EC50) ([4]; selectivity index): 261.5
Cc1cccc(N2C(=O)/C(=C/c3ccc(-c4cccc(C(=O)O)c4)o3)SC2=S)c1 [NB150]	0.308 ± 0.047	0.56 ± 0.05	0.403 ± 0.119	–	38.7 ± 5.85	SI (CC50/EC50) ([4]; selectivity index): 125.69
C=CCN1C(=O)/C(=C/c2ccc(-c3cccc(C(=O)O)c3C)o2)SC1=S [NB189]	0.984 ± 0.155	4.33 ± 0.078	2.28 ± 0.389	> 414	–	SI (CC50/EC50) [4]: >421.05
O=C(O)c1cc(-c2ccc(/C=C3\SC(=S)N(c4ccc([N+](=O)[O-])cc4)C3=O)o2)ccc1Cl [NB222]	> 100	> 100	> 100	–	> 328	–
Cc1ccc(NC(=O)CN2C(=O)S/C(=C\c3ccc(-c4cccc(C(=O)O)c4C)o3)C2=O)cc1 [NB196]	> 100	> 100	> 100	> 336	–	–
O=C(O)c1cc(-c2ccc(/C=C3\SC(=S)N(C4CCCCC4)C3=O)o2)ccc1Cl [NB219]	0.087 ± 0.04	4.3 ± 0.134	0.401 ± 0.067	–	6.87 ± 0.29	SI (CC50/EC50) ([4]; selectivity index): 78.97
O=C(O)c1cccc(-c2ccc(/C=C3\SC(=S)N(c4cccc5ccccc45)C3=O)o2)c1 [NB221]	0.46 ± 0.009	7.11 ± 0.24	1.58 ± 0.241	–	34.5 ± 0.46	SI (CC50/EC50) ([4]; selectivity index): 75.04
COC(=O)CN1C(=O)S/C(=C\c2ccc(-c3cc(C(=O)O)ccc3Cl)o2)C1=O [NB234]	> 100	> 100	> 100	–	> 379	–
COCCN1C(=O)/C(=C/c2ccc(-c3ccc(Cl)c(C(=O)O)c3)o2)SC1=S [NB201]	10.7 ± 3.09	33.2 ± 0.566	> 100	118 ± 8.54	–	SI (CC50/EC50) [4]: 11.08
C#CCN1C(=O)S/C(=C\c2ccc(-c3cc(C(=O)O)ccc3Cl)o2)C1=O [NB203]	> 100	> 100	> 100	> 413	–	–
O=C(O)c1cc(-c2ccc(/C=C3\SC(=S)N(Cc4ccc(F)cc4)C3=O)o2)ccc1Cl [NB208]	1.84 ± 0.654	6.668 ± 0.042	> 100	–	54.6 ± 15.3	SI (CC50/EC50) ([4]; selectivity index): 29.77
